Results: patent US9174992B2, “Heterobicyclic compounds” (Amgen Inc., priority 2012, dated 2015)

What follows are molecules tested against PDE10A (UniProt Q9Y233) (assay: PDE10 enzyme inhibition, IMAP TR-FRET assay (Example A, MPDE10A7 Enzyme Activity and Inhibition)). Conditions: approximate IC50 value, Table 10.
Format: biochemical
Description: Enzyme Activity. An IMAP TR-FRET assay was used to analyze the enzyme activity (Molecular Devices Corp., Sunnyvale Calif.). 10 μL of serial diluted PDE10A (BPS Bioscience, San Diego, Calif.) or tissue homogenate was incubated with equal volumes of diluted fluorescein labeled cAMP or cGMP for 90 min in 384-well Polypropylene assay plates (Greiner, Monroe, N.C.) at room temperature. After incubation, the reaction was stopped by adding 55 μL of diluted binding reagents and was incubated for 4 hours to overnight at room temperature. The plates were read on an Envision (Perkin Elmer, Waltham, Mass.) for time resolved fluorescence resonance energy transfer. The data were analyzed with Genedata Screener® (Lexington, Mass.).
Enzyme Inhibition. To check the inhibition profile, 0.2 μL of serial diluted compounds were incubated with 10 μL of diluted PDE10 enzyme (BPS Bioscience, San Diego, Calif.) or tissue homogenate in a 384-well Polypropylene assay plate (Greiner, Monroe, N.C.) for 60 min at room temperature. After incubation, 10 μL of diluted fluorescein labeled cAMP or cGMP substrate were added and incubated for 90 min at room temperature. The reaction was stopped by adding 55 μL of diluted binding reagents and plates were read on an Envision (Perkin Elmer, Waltham, Mass.) for time resolved fluorescence resonance energy transfer. The data were analyzed with Genedata Screener® (Lexington, Mass.).
IC50 curves were generated from the raw data collected from the […] and fitted with a four-parameter logistic equation using in-house data analysis tool, Activity Base.

Q: For `CC1(C)C(=O)N([C@H]2C[C@H](Nc3ncc(C(F)(F)F)cn3)C2)c2ncccc21` [Example 70, 1-(trans-3-((5-(trifluoromethyl)pyrimidin-2-yl)amino)cyclobutyl)-3,3-dimethyl-1H-pyrrolo[2,3-b]pyridin-2(3H)-one], which IC50 is on record?
A: 180 nM

Q: `O=c1[nH]c2cccnc2n1[C@H]1C[C@H](Nc2nc3ccc(F)cc3s2)C1` [Example 92, 3-(trans-3-((6-fluorobenzo[d]thiazol-2-yl)amino)cyclobutyl)-1H-imidazo[4,5-b]pyridin-2(3H)-one] was tested. Which IC50 did it give?
A: 0.664 nM

Q: `c1cnc2sc(N[C@H]3C[C@H](n4c(C5CC5)nc5cccnc54)C3)nc2c1` [Example 4, N-(trans-3-(2-cyclopropyl-3H-imidazo[4,5-b]pyridin-3-yl)cyclobutyl)thiazolo[5,4-b]pyridin-2-amine] was tested. Which IC50 did it give?
A: 0.67 nM

Q: For `CC1(C)C(=O)N([C@H]2C[C@H](Nc3ccc(C(F)(F)F)cn3)C2)c2ncccc21` [Example 46, 1-(Trans-3-((5-trifuoromethylpyridin-2-yl)amino)cyclobutyl)-3,3-dimethyl-1H-pyrrolo[2,3-b]pyridin-2(3H)-one], which IC50 is on record?
A: 2.53 nM

Q: With `Cn1c(=O)n([C@H]2C[C@H](Nc3nc4ccccc4s3)C2)c2ncc(F)cc21` [Example 86, 3-(trans-3-(benzo[d]thiazol-2-ylamino)cyclobutyl)-6-fluoro-1-methyl-1H-imidazo[4,5-b]pyridin-2(3H)-one] as the molecule, how does the IC50 read?
A: 0.0655 nM

Q: Which IC50 does the source give for `CC1(C)C(=O)N([C@H]2C[C@H](Nc3ccc(Cl)cn3)C2)c2ncccc21` [Example 42, 1-(Trans-3-((5-chloropyridin-2-yl)amino)cyclobutyl)-3,3-dimethyl-1H-pyrrolo[2,3-b]pyridin-2(3H)-one] here?
A: 0.856 nM

Q: For `O=c1n(C2CC2)c2nccnc2n1[C@H]1C[C@H](Nc2nc3ccccc3o2)C1` [Example 220, 1-(trans-3-(benzo[d]oxazol-2-ylamino)cyclobutyl)-3-cyclopropyl-1H-imidazo[4,5-b]pyrazin-2(3H)-one], which IC50 is on record?
A: 2.35 nM

Q: Which IC50 does the source give for `O=c1[nH]c2cncnc2n1[C@H]1C[C@H](Nc2nc3ccccc3s2)C1` [Example 97, 9-(trans-3-(benzo[d]thiazol-2-ylamino)cyclobutyl)-7H-purin-8(9H)-one] here?
A: 3.03 nM

Q: With `CC1(C)C(=O)N([C@H]2C[C@@H](Nc3nc4ccccc4s3)C2)c2nccnc21` [Example 215, 5-(cis-3-(benzo[d]thiazol-2-ylamino)cyclobutyl)-7,7-dimethyl-5H-pyrrolo[2,3-b]pyrazin-6(7H)-one] as the molecule, how does the IC50 read?
A: 0.978 nM

Q: `O=C1N([C@H]2C[C@H](Nc3nc4ccccc4s3)C2)c2ncccc2C12CCOCC2` [Example 37, 1′-(Trans-3-(benzo[d]thiazol-2-ylamino)cyclobutyl)-2,3,5,6-tetrahydrospiro[pyran-4,3′-pyrrolo[2,3-b]pyridin]-2′(1′H)-one] was tested. Which IC50 did it give?
A: 0.14 nM

Q: With `O=c1n(C2CC2)c2cccnc2n1[C@H]1C[C@H](Nc2nc3ccc(F)cc3s2)C1` [Example 186, 1-cyclopropyl-3-(trans-3-((6-fluorobenzo[d]thiazol-2-yl)amino)cyclobutyl)-1H-imidazo[4,5-b]pyridin-2(3H)-one] as the molecule, how does the IC50 read?
A: 0.669 nM

Q: For `Clc1ccc2ccc(N[C@H]3C[C@H](n4c(C5CC5)nc5cccnc54)C3)nc2c1` [Example 20, 7-chloro-N-(trans-3-(2-cyclopropyl-3H-imidazo[4,5-b]pyridin-3-yl)cyclobutyl)quinolin-2-amine], which IC50 is on record?
A: 68 nM

Q: With `COc1nc2cccnc2n1C1CN(c2ncc(C)cn2)C1` [Example 128, 2-Methoxy-3-(1-(5-methylpyrimidin-2-yl)azetidin-3-yl)-3H-imidazo[4,5-b]pyridine] as the molecule, how does the IC50 read?
A: 23 nM

Q: For `O=c1n(C2CC2)c2nccnc2n1[C@H]1C[C@H](Nc2nc3ccc(F)cc3o2)C1` [Example 176, 1-cyclopropyl-3-(trans-3-((6-fluorobenzo[d]oxazol-2-yl)amino)cyclobutyl)-1H-imidazo[4,5-b]pyrazin-2(3 H)-one], which IC50 is on record?
A: 7.75 nM

Q: `COc1ccc2nc(N[C@H]3C[C@H](n4c(=O)n(C5CC5)c5nccnc54)C3)sc2c1` [Example 224, 1-cyclopropyl-3-(trans-3-((6-methoxybenzo[d]thiazol-2-yl)amino)cyclobutyl)-1H-imidazo[4,5-b]pyrazin-2(3 H)-one] was tested. Which IC50 did it give?
A: 57.7 nM

Q: `O=c1n(C2CC2)c2nccnc2n1[C@H]1C[C@H](Nc2ccc3cccnc3n2)C1` [Example 223, 1-(trans-3-((1,8-naphthyridin-2-yl)amino)cyclobutyl)-3-cyclopropyl-1H-imidazo[4,5-b]pyrazin-2(3 H)-one] was tested. Which IC50 did it give?
A: 18.4 nM

Q: For `CC1(C)C(=O)N([C@H]2C[C@H](Nc3nccs3)C2)c2ncccc21` [Example 55, 3,3-Dimethyl-1-(trans-3-(thiazol-2-ylamino)cyclobutyl)-1H-pyrrolo[2,3-b]pyridine-2(3H)-one], which IC50 is on record?
A: 7.43 nM

Q: Which IC50 does the source give for `CC1(C)C(=O)N(C2CCN(c3ncc4ccccc4n3)CC2)c2ncccc21` [Example 188, 3,3-dimethyl-1-(1-(quinazolin-2-yl)piperidin-4-yl)-1H-pyrrolo[2,3-b]pyridin-2(3 H)-one] here?
A: 0.127 nM

Q: With `O=c1[nH]c2cccnc2n1[C@H]1C[C@H](Nc2ncc3ccc(F)cc3n2)C1` [Example 109, 3-(trans-3-((7-fluoroquinazolin-2-yl)amino)cyclobutyl)-1H-imidazo[4,5-b]pyridin-2(3H)-one] as the molecule, how does the IC50 read?
A: 339 nM

Q: How did the IC50 turn out when `CC1(C)C(=O)N([C@H]2C[C@H](Nc3nccc(Cl)n3)C2)c2ncccc21` [Example 64, 1-(trans-3-((4-chloropyrimidin-2-yl)amino)cyclobutyl)-3,3-dimethyl-1H-pyrrolo[2,3-b]pyridin-2(3H)-one] was run?
A: 43.3 nM

Q: With `Cn1c(N[C@H]2C[C@H](n3c(=O)n(C)c4cccnc43)C2)nc2ccccc21` [Example 145, 1-methyl-3-(trans-3-((1-methyl-1H-benzo[d]imidazol-2-yl)amino)cyclobutyl)-1H-imidazo[4,5-b]pyridin-2(3H)-one] as the molecule, how does the IC50 read?
A: 0.305 nM

Q: For `Cc1ccc(N2CCC(N3C(=O)C(C)(C)c4cccnc43)CC2)nc1` [Example 121, 3,3-dimethyl-1-(1-(5-methylpyridin-2-yl)piperidin-4-yl)-1H-pyrrolo[2,3-b]pyridin-2(3H)-one], which IC50 is on record?
A: 0.049 nM

Q: How did the IC50 turn out when `CC1(C)C(=O)N([C@H]2C[C@H](Nc3ccc(Cl)cn3)C2)c2nccnc21` [Example 49] was run?
A: 3.88 nM

Q: `Cc1cnc(N[C@H]2C[C@H](N3C(=O)C(C)(C)c4cccnc43)C2)nc1` [Example 48, 1-(trans-3-((5-methylpyrimidin-2-yl)amino)cyclobutyl)-3,3-dimethyl-1H-pyrrolo[2,3-b]pyridin-2(3H)-one] was tested. Which IC50 did it give?
A: 3.46 nM

Q: Which IC50 does the source give for `N#CC1(NC(=O)c2cnc(N[C@H]3C[C@H](n4c(=O)n(C5CC5)c5nccnc54)C3)s2)CC1` [Example 151, N-(1-cyanocyclopropyl)-2-((trans-3-(3-cyclopropyl-2-oxo-2,3-dihydro-1H-imidazo[4,5-b]pyrazin-1-yl)cyclobutyl)amino)thiazole-5-carboxamide] here?
A: 2490 nM

Q: For `Cc1ccc(N[C@H]2C[C@H](N3C(=O)C(C)(C)c4cccnc43)C2)nc1` [Example 38, 3,3-Dimethyl-1-(trans-3-(5-methylpyridin-2-yl)amino)cyclobutyl-1H-pyrrolo[2,3-b]pyridin-2(3H)-one], which IC50 is on record?
A: 0.166 nM

Q: Which IC50 does the source give for `c1cnc2c(c1)nc(C1CC1)n2[C@H]1C[C@H](Nc2ccc3ccncc3n2)C1` [Example 18, N-(Trans-3-(2-cyclopropyl-3H-imidazo[4,5-b]pyridin-3-yl)cyclobutyl)-1,7-naphthyridin-2-amine] here?
A: 28.4 nM

Q: For `CC1(C)C(=O)N([C@H]2C[C@H](Nc3nc4cccnc4s3)C2)c2nccnc21` [Example 173, 7,7-dimethyl-5-(trans-3-(thiazolo[5,4-b]pyridin-2-ylamino)cyclobutyl)-5H-pyrrolo[2,3-b]pyrazin-6(7H)-one], which IC50 is on record?
A: 1.49 nM

Q: For `c1cnc2c(c1)nc(C1CC1)n2[C@H]1C[C@H](Nc2nc3ncccc3s2)C1` [Example 27, N-(Trans-3-(2-cyclopropyl-3H-imidazo[4,5-b]pyridin-3-yl)cyclobutyl)thiazolo[4,5-b]pyridin-2-amine], which IC50 is on record?
A: 11 nM

Q: Which IC50 does the source give for `O=C1N([C@H]2C[C@H](Nc3nc4ccccc4s3)C2)c2ncccc2C1(F)F` [Example 212, 1-(trans-3-(benzo[d]thiazol-2-ylamino)cyclobutyl)-3,3-difluoro-1-H-pyrrolo[2,3-b]pyridin-2-(3H)-one] here?
A: 0.449 nM

Q: For `CC1(C)C(=O)N([C@H]2C[C@H](Nc3nc4ccccc4s3)C2)c2ncccc21` [Example 30, 1-(trans-3-(benzo[d]thiazol-2-ylamino)cyclobutyl)-3,3-dimethyl-1H-pyrrolo[2,3-b]pyridin-2(3H)-one], which IC50 is on record?
A: 0.0125 nM

Q: For `CC1(C)C(=O)N([C@H]2C[C@H](Nc3ncc4ccc(F)cc4n3)C2)c2nccnc21` [Example 175, 5-(trans-3-((7-fluoroquinazolin-2-yl)amino)cyclobutyl)-7,7-dimethyl-5H-pyrrolo[2,3-b]lpyrazin-6(7 H)-one], which IC50 is on record?
A: 18.4 nM

Q: For `COc1ccc(N[C@H]2C[C@H](N3C(=O)C(C)(C)c4nccnc43)C2)nc1` [Example 74], which IC50 is on record?
A: 2.88 nM

Q: For `COc1cccnc1N[C@H]1C[C@H](N2C(=O)C(C)(C)c3cccnc32)C1` [Example 45, 1-(Trans-3-((3-methoxypyridin-2-yl)amino)cyclobutyl)-3,3-dimethyl-1H-pyrrolo[2,3-b]pyridin-2(3H)-one], which IC50 is on record?
A: 2.52 nM
